Data reported in patent US4902678A, “Anti-viral compositions” (priority 1988, dated 1990).

Key:
HSV-1-227 = assay: Viral plaque titration, HSV-1-227 in HFF cells; conditions: Table 3, G* 2.0 μg/ml, PAA 80 μg/ml, alone or combined; for Virus titer: no-drug control 28
Experimental: (§1) Human fetal fibroblasts (HFF) derived from fetal tissues were used in this study. Cells were grown and maintained in Basal Medium Eagle (BME) supplemented with 0.112% sodium bicarbonate, 2mML-glutamine, 2mg % Neomycin and 20% (vol/vol) calf serum.
(§2) HSV-2-EL 1, HSV-2-EL 3, HSV-2-EL 4, HSV-2-EL 6, HSV-1-EL 11 and HSV-1-227 are recent clinical isolates.
(§3) A viral plaque titration method (Roizman and Roane, 1961) was used to deteremine the titer of the HSV strain. Tissue culture dishes (35 by 10mm, Corning) were seeded with cells and used for assays when they were approximately 75% monolayer. Volumes (0.2ml) of logarithmic dilutions of the virus strain were inoculated onto each of two tissue culture dishes and adsorbed for 1 hr with intermittent shaking, the inoculum was removed and 2ml of 20% BME containing 0.5% human immune serum globulin was added. After a 48 hr. incubation period at 36° C. in a 5% CO2 atmosphere, the overlay medium was removed, and the cell sheets were stained with a 0.05% aqueous crystal violet solution. The plaque numbers were counted with the aid of a Nikon profile projector which magnified the dishes 10X. Duplicate results were averaged, and the number of plaque-forming units (PFU) was calculated. The virus titre is thus expressed as a number of plaque forming units to be seen after growth under these conditions.
(§4) Then combinations of the drugs were tested for activity by viral plaque titration, at concentrations which were multiples of the ED-50, of the individual drugs. In combinations involving G*, BVDU and AGC, a concentration ten times that of its ED-50 was used in the combination. This was intended to ensure a concentration sufficiently high to limit the number of partially drug-resistant virus plaques to a small fraction in respect of each drug of the combination. In respect of PAA, a concentration of five times ED-50 was used, to avoid cell toxicity problems. The drugs were individually plaque titrated at the same concentrations for comparison purposes.
(§5) The experiments described in Examples 1 and 2 were essentially repeated, but using the drugs G* and PAA alone and in combinations against samples of HFF cells each infected with one of six HSV strains, two of which were type 1 and four of which were type 2. Plaque titration methods as described above were used.

HSV-2-EL 4 = assay: Viral plaque titration, HSV-2-EL 4 in HFF cells; conditions: alone or combined; for Virus titer: no-drug control 750
Experimental: as §1, §2, §3, §4
(§6) In this example, combinations of G* and phosphonoformic acid PFA were tested, by plaque titration methods, for activity against a variety of herpesvirus strains in HFF cells, using procedures previously described. A stock solution of PFA was made up ahead of time, by dissolving 3 mg PFA in 1 ml of 20% BME, and stored at -20° C. It was appropriately diluted in 20% BME just before usage. Two herpesvirus type 2 strains and one herpesvirus type 1 strain were tested.
as §5

HSV-2-EL 1 = conditions: Table 3, HFF cells, G* 2.0 μg/ml, PAA 76 μg/ml, alone or combined; for Virus titer: no-drug control 170
Experimental: as §1, §2, §3, §4, §5

[1] = tested on: herpes virus-specific DNA-polymerase (DP); conditions: hypothesis on mode of action; cited from earlier work
HSV-2-EL 3 = assay: Viral plaque titration, HSV-2-EL 3 in HFF cells; conditions: Table 3, G* 2.0 μg/ml, PAA 82 μg/ml, alone or combined; for Virus titer: no-drug control 77
Experimental: as §1, §2, §3, §4, §5

HSV-1-EL 11 = conditions: Table 3, HFF cells, G* 0.4 μg/ml, PAA 25 μg/ml, alone or combined; for Virus titer: no-drug control 8.0
Experimental: as §1, §2, §3, §4, §5

[2] = tested on: herpes virus-specific thymidine kinase (TK); conditions: hypothesis on mode of action; cited from earlier work
HSV-1-Patton = assay: Plaque reduction / viral plaque titration, HSV-1-Patton in HFF cells
Experimental: as §1, §3
As antiviral drugs in these experiments, there were used acycloguanosine (ACG), phosphonoacetic acid (PAA), bromovinyl deoxyuridine (BVDU), phosphonoformic acid (PFA) and 9-[[2-hydroxy-1-(hydroxymethyl)ethoxy]methyl]guanine (G*). Stock solutions, 3mg/ml, of each drug were prepared as follows, kept at -20° C., and appropriate dilutions thereof were made in 20% BME just before usage:
In order to make comparisons between the activities of the various drugs and combinations, experiments were conducted by plaque titration to determine for each drug its viral ED-50 (i.e. the concentration thereof which inhibits HSV plaque formation by 50% in the HFF cells, as compared with cell cultures in the absence of the drug). For this purpose, tissue culture dishes (35 by 10 mm) with HFF cell monolayers at 75% confluence were inoculated with approximately 50 plaque-forming units of virus per 0.2 ml, and the virus was allowed to adsorb for 1 hr with intermittent shaking. After removal of the inoculum, 2 ml of 20% BME with 0.5% immune globulin and threefold dilutions of the appropriate drug were added to duplicate dishes. One set of dishes received no drug and was later used for the "no-drug control". After a 48 hr incubation period at 36° C. in a 5% CO2 atmosphere, the overlay medium was removed, the cells were stained as described above, and plaques were counted. After averaging the counts of duplicate plates, the fraction of plaques emerging in the presence of each drug dilution was calculated as a percent of the control. Each drug titration was plotted on semilogarithmic graph paper, with the number of plaques per dish as vertical axis and the drug concentration as horizontal axis. The viral ED-50 concentration was that amount of drug per ml of overlay medium that inhibited plaque numbers by 50%, compared with no-drug controls, and this was read off the graphic plot of the data.
Then combinations of the drugs were tested for activity by viral plaque titration, at concentrations which were multiples of the ED-50, of the individual drugs. In combinations involving G*, BVDU and AGC, a concentration ten times that of its ED-50 was used in the combination. […] In respect of PAA, a concentration of five times ED-50 was used, to avoid cell toxicity problems.

HSV-2-EL 6 = assay: Viral plaque titration, HSV-2-EL 6 in HFF cells; conditions: alone or combined
Experimental: as §1, §2, §3, §4, §6, §5

[3] = tested on: HSV mutants lacking the ability to induce DP (DP-mutants); assay: Activity against HSV mutants lacking the ability to induce DP (statement); set-up: species or system Herpes simplex virus
human herpesviruses = conditions: cited from earlier work
normal host cells = conditions: cited from earlier work
[4] = topical formulation, drug concentrations in excess of 100mM; cited from earlier work
[5] = tested on: HSV mutants lacking the ability to induce DP (DP-mutants); conditions: cited from earlier work
[6] = tested on: Cellular TK and DP enzymes; conditions: cited from earlier work
[7] = Table 2, G* 3.0 μg/ml, PFA 80 μg/ml
[8] = Table 3, G* 2.0 μg/ml, PAA 90 μg/ml
[9] = Table 1, multiplicity of infection less than one, G* 1.2, BVDU 0.11, ACG 2.0, PAA 250 μg/ml alone, same concentrations in combinations, no-drug control 147
[10] = Table 1, ratio of control titer to drug titer, G* 1.2, BVDU 0.11, ACG 2.0, PAA 250 μg/ml alone, same concentrations in combinations
[11] = Table 2, G* 0.7 μg/ml, PFA 80 μg/ml, alone or combined
[12] = Table 2, G* 0.7 μg/ml, PFA 80 μg/ml, alone or combined, no-drug control 3400
[13] = Table 2, G* 0.7 μg/ml, PFA 80 μg/ml
[14] = Table 2, G* 0.7 μg/ml, PFA 80 μg/ml, no-drug control 150
[15] = Table 3, G* 0.6 μg/ml, PAA 90 μg/ml
[16] = Table 3, G* 0.6 μg/ml, PAA 90 μg/ml, no-drug control 180

## Nc1nc2c(ncn2COC(CO)CO)c(=O)[nH]1 [G*]
HSV-1-227
  Fold titer reduction: 110 fold
  Virus titer: 0.25 pfu/ml × 10^5
HSV-2-EL 4; [7]
  Fold titer reduction: 36 fold
  Virus titer: 21 pfu/ml × 10^5
HSV-2-EL 4; [8]
  Fold titer reduction: 130 fold
  Virus titer: 5.9 pfu/ml × 10^5
HSV-2-EL 1
  Fold titer reduction: 19 fold
  Virus titer: 8.9 pfu/ml × 10^5
[1]
  Interaction with viral DNA polymerase: not involved in the activity of virus-specific DNA-polymerase
HSV-2-EL 3
  Fold titer reduction: 7.7 fold
  Virus titer: 10.0 pfu/ml × 10^5
HSV-1-EL 11
  Fold titer reduction: 22 fold
  Virus titer: 0.37 pfu/ml × 10^5
[2]
  Interaction with viral thymidine kinase: inhibits the activity of the viral thymidine kinase enzyme
HSV-1-Patton; [9]
  Virus titer: 1.1 PFU/ml × 10^5
HSV-1-Patton; [10]
  Fold titer reduction: 130 fold
HSV-1-Patton; [11]
  Fold titer reduction: 24 fold
HSV-1-Patton; [12]
  Virus titer: 140 pfu/ml × 10^5
HSV-2-EL 6; [13]
  Fold titer reduction: 3.8 fold
HSV-2-EL 6; [14]
  Virus titer: 40 pfu/ml × 10^5
HSV-2-EL 6; [15]
  Fold titer reduction: 200 fold
HSV-2-EL 6; [16]
  Virus titer: 0.90 pfu/ml × 10^5
[3]
  Inhibition of DP-mutants of HSV: able to inhibit HSV mutants lacking the ability to induce DP

## O=c1[nH]c(=O)n([C@H]2C[C@H](O)[C@@H](CO)O2)cc1/C=C/Br [BVDU, bromovinyl deoxyuridine]
HSV-1-Patton; [9]
  Virus titer: 2.1 PFU/ml × 10^5
HSV-1-Patton; [10]
  Fold titer reduction: 70 fold

## O=c1[nH]c(=O)n([C@H]2C[C@H](O)[C@@H](CO)O2)cc1I [IDU, 5-iododeoxyuridine]
Human herpesviruses
  Activity against herpesviruses in prior art: effective only against herpes infections of the eyes
Normal host cells; prior art
  Side effects / toxicity to normal cells: undesirable side effects, associated with toxicity to normal cells

## O=C(O)P(=O)(O)O [PFA, phosphonoformic acid]
HSV-2-EL 4; [7]
  Fold titer reduction: 2,700 fold
  Virus titer: 0.28 pfu/ml × 10^5
Human herpesviruses
  Activity against herpesviruses in prior art: some demonstrated activity against human herpesviruses
[1]
  Interaction with viral DNA polymerase: interference with viral DNA polymerase, not viral thymidine kinase
[4]
  Skin irritation: do not appear harmful
HSV-1-Patton; [11]
  Fold titer reduction: 4.5 fold
HSV-1-Patton; Table 2, G* 0.7 μg/ml, PFA 80 μg/ml, alone or combined, listed as PFF
  Fold titer reduction: 750 fold
HSV-1-Patton; [12]
  Virus titer: 750 pfu/ml × 10^5
HSV-2-EL 6; [13]
  Fold titer reduction: 3.1 fold
HSV-2-EL 6; [14]
  Virus titer: 48 pfu/ml × 10^5

## Nc1nc2c(ncn2COCCO)c(=O)[nH]1 [ACG, 9-[2-hydroxyethoxymethyl]guanine]
[5]
  Resistance of DP-mutants of HSV to drug: highly resistant
Human herpesviruses
  Activity against herpesviruses in prior art: relatively high antiviral activity
[1]
  Interaction with viral DNA polymerase: inhibits the action of the herpes virus-specific DNA-polymerase (DP)
[2]
  Interaction with viral thymidine kinase: interaction with the herpes virus-specific thymidine kinase (TK) resulting in phosphorylation of the acycloguanosine
Normal host cells
  Toxicity for uninfected cells: relatively low toxicity for uninfected cells
HSV-1-Patton; [9]
  Virus titer: 4.7 PFU/ml × 10^5
HSV-1-Patton; [10]
  Fold titer reduction: 31 fold
[6]
  Effect on cellular TK and DP enzymes: only slightly affected

## O=C(O)CP(=O)(O)O [PAA, phosphonoacetic acid]
[5]
  Resistance of DP-mutants of HSV to drug: highly resistant
HSV-1-227
  Fold titer reduction: 26 fold
  Virus titer: 1.1 pfu/ml × 10^5
HSV-2-EL 4; [8]
  Fold titer reduction: 7500 fold
  Virus titer: 0.10 pfu/ml × 10^5
HSV-2-EL 1
  Fold titer reduction: 500 fold
  Virus titer: 0.34 pfu/ml × 10^5
Human herpesviruses
  Activity against herpesviruses in prior art: some demonstrated activity against human herpesviruses
[1]
  Interaction with viral DNA polymerase: interference with viral DNA polymerase, not viral thymidine kinase
HSV-2-EL 3
  Fold titer reduction: 210 fold
  Virus titer: 0.36 pfu/ml × 10^5
[4]
  Skin irritation: skin irritant
HSV-1-EL 11
  Fold titer reduction: 2.9 fold
  Virus titer: 2.8 pfu/ml × 10^5
HSV-1-Patton; [9]
  Virus titer: 3.2 PFU/ml × 10^5
HSV-1-Patton; [10]
  Fold titer reduction: 50 fold
HSV-2-EL 6; [15]
  Fold titer reduction: 5.8 fold
HSV-2-EL 6; [16]
  Virus titer: 31.0 pfu/ml × 10^5

## Nc1ncnc2c1ncn2[C@@H]1O[C@H](CO)[C@@H](O)[C@@H]1O [ara-A, Adenine arabinoside]
Human herpesviruses
  Activity against herpesviruses in prior art: some demonstrated activity against human herpesviruses

## O=CC[C@@H](O)[C@H](O)[C@H](O)CO [2DB, 2-deoxy-D-glucose]
Human herpesviruses
  Activity against herpesviruses in prior art: some demonstrated activity against human herpesviruses
